Activity calls are given as the source filed them. No cut-off for these calls is given here.
Tests used:
Candida albicans [1] = assay: Antifungal activity against Candida albicans SC5314 assessed as inhibition of fungal growth by measuring decrease in OD600 at 100 microM measured after 24 hrs by absorbance based analysis; assay type: functional
Candida albicans [2] = assay: Potentiation of micafungin-induced antifungal activity against Candida albicans SC5314 assessed as fungal growth at 100 microM measured after 24 hrs in presence of micafungin by absorbance based analysis relative to micafungin-treated control; assay type: functional
Candida albicans [3] = assay: Potentiation of fluconazole-induced antifungal activity against Candida albicans SC5314 assessed as fungal growth at 100 microM measured after 24 hrs in presence of fluconazole by absorbance based analysis relative to fluconazole-treated control; assay type: functional
Candida albicans [4] = assay: Antifungal activity against Candida albicans SC5314 assessed as inhibition of fungal filamentation in YEPD containing 10% serum medium at 100 uM incubated for 1 hr by microscopic analysis; assay type: functional, organism-based
Candida albicans [5] = assay: Antifungal activity against Candida albicans SC5314 assessed as inhibition of fungal filamentation in Spider medium at 100 uM incubated for 1 hr by microscopic analysis; assay type: functional, organism-based
Candida albicans [6] = assay: Potentiation of fluconazole-induced antifungal activity against Candida albicans SC5314 assessed as inhibition of fungal filamentation by measuring reduction in fungal hyphae growth in YEPD containing 10% serum medium at 100 uM incubated for 1 hr in presence of fluconazole by microscopic analysis; assay type: functional, organism-based
Candida albicans [7] = assay: Potentiation of fluconazole-induced antifungal activity against Candida albicans SC5314 assessed as inhibition of fungal filamentation by measuring reduction in fungal hyphae growth in Spider medium at 100 uM incubated for 1 hr in presence of fluconazole by microscopic analysis; assay type: functional, organism-based
Candida albicans [8] = assay: Potentiation of amphotericin B-induced antifungal activity against Candida albicans SC5314 assessed as fungal growth at 100 microM measured after 24 hrs in presence of amphotericin B by absorbance based analysis relative to amphotericin B-treated control; assay type: functional
Candida albicans [9] = assay: Antifungal activity against fluconazole-resistant Candida albicans CNL011 assessed as fungal growth at 100 uM measured after 24 hrs by absorbance based analysis relative to vehicle-treated control; assay type: functional
Candida albicans [10] = assay: Antifungal activity against fluconazole-resistant Candida albicans CNL012 assessed as fungal growth at 100 uM measured after 24 hrs by absorbance based analysis relative to vehicle-treated control; assay type: functional
Candida albicans [11] = assay: Recovery of fluconazole susceptibility against fluconazole-resistant Candida albicans CNL011 assessed as inhibition of fungal growth at 100 uM measured every 15 mins for 24 hrs by absorbance based analysis; assay type: functional, organism-based
Candida albicans [12] = assay: Recovery of fluconazole susceptibility against fluconazole-resistant Candida albicans CNL012 assessed as inhibition of fungal growth at 100 uM measured every 15 mins for 24 hrs by absorbance based analysis; assay type: functional, organism-based
[Candida] auris [13] = Antifungal activity against Candida auris NL002 assessed as fungal growth at 100 uM measured after 24 hrs by absorbance based analysis relative to vehicle-treated control; assay type: functional, Candidozyma auris
Candida tropicalis [14] = assay: Antifungal activity against Candida tropicalis NL001 assessed as fungal growth at 100 uM measured after 24 hrs by absorbance based analysis relative to vehicle-treated control; assay type: functional
Candida parapsilosis [15] = assay: Antifungal activity against Candida parapsilosis NL001 assessed as fungal growth at 100 uM measured after 24 hrs by absorbance based analysis relative to vehicle-treated control; assay type: functional
Saccharomyces cerevisiae [16] = assay: Antifungal activity against Saccharomyces cerevisiae BY4742 assessed as inhibition of fungal growth at 100 uM measured after 24 hrs by absorbance based analysis relative to vehicle-treated control; assay type: functional
[Candida] auris [17] = Potentiation of fluconazole-induced antifungal activity against Candida auris NL002 assessed as fungal growth at 100 uM measured after 24 hrs in presence of fluconazole by absorbance based analysis relative to vehicle-treated control; assay type: functional, Candidozyma auris
Candida tropicalis [18] = assay: Potentiation of fluconazole-induced antifungal activity against Candida tropicalis NL001 assessed as fungal growth at 100 uM measured after 24 hrs in presence of fluconazole by absorbance based analysis relative to vehicle treated control; assay type: functional
Candida parapsilosis [19] = assay: Potentiation of fluconazole-induced antifungal activity against Candida parapsilosis NL001 assessed as fungal growth at 100 uM measured after 24 hrs in presence of fluconazole by absorbance based analysis relative to vehicle-treated control; assay type: functional
[Candida] auris [20] = Potentiation of fluconazole-induced antifungal activity against Candida auris NL002 assessed as fungal growth at 100 uM measured after 24 hrs in presence of fluconazole by absorbance based analysis relative to fluconazole-treated control; assay type: functional, Candidozyma auris
Candida tropicalis [21] = assay: Potentiation of fluconazole-induced antifungal activity against Candida tropicalis NL001 assessed as fungal growth at 100 uM measured after 24 hrs in presence of fluconazole by absorbance based analysis relative to fluconazole-treated control; assay type: functional
Candida parapsilosis [22] = assay: Potentiation of fluconazole-induced antifungal activity against Candida parapsilosis NL001 assessed as fungal growth at 100 uM measured after 24 hrs in presence of fluconazole by absorbance based analysis relative to fluconazole-treated control; assay type: functional
Saccharomyces cerevisiae [23] = assay: Potentiation of fluconazole-induced antifungal activity against Saccharomyces cerevisiae BY4742 assessed as inhibition of fungal growth at 100 uM measured after 24 hrs in presence of fluconazole by absorbance based analysis relative to fluconazole-treated control; assay type: functional
Cryptococcus neoformans [24] = assay: Antifungal activity against Cryptococcus neoformans H99 assessed as inhibition of fungal growth at 0.2 uM measured every 15 mins for 24 hrs by absorbance based analysis; assay type: functional, organism-based
Cryptococcus neoformans [25] = assay: Potentiation of fluconazole-induced antifungal activity against Cryptococcus neoformans H99 assessed as inhibition of fungal growth at 0.2 uM measured every 15 mins for 24 hrs in presence of fluconazole by absorbance based analysis; assay type: functional, organism-based
Saccharomyces cerevisiae [26] = assay: Antifungal activity against Saccharomyces cerevisiae BY4742 assessed as fungal growth at 1600 uM measured after 24 hrs by absorbance based analysis relative to control; assay type: functional
Saccharomyces cerevisiae [27] = assay: Antifungal activity against Saccharomyces cerevisiae harboring adp1 delta mutant assessed as fungal growth at 1600 uM measured after 24 hrs by absorbance based analysis relative to control; assay type: functional
Saccharomyces cerevisiae [28] = assay: Antifungal activity against Saccharomyces cerevisiae harboring aus1 delta mutant assessed as fungal growth at 1600 uM measured after 24 hrs by absorbance based analysis relative to control; assay type: functional
Saccharomyces cerevisiae [29] = assay: Antifungal activity against Saccharomyces cerevisiae harboring bpt1 delta mutant assessed as fungal growth at 1600 uM measured after 24 hrs by absorbance based analysis relative to control; assay type: functional
Saccharomyces cerevisiae [30] = assay: Antifungal activity against Saccharomyces cerevisiae harboring nft1 delta mutant assessed as fungal growth at 1600 uM measured after 24 hrs by absorbance based analysis relative to control; assay type: functional
Saccharomyces cerevisiae [31] = assay: Antifungal activity against Saccharomyces cerevisiae harboring pdr5 delta mutant assessed as fungal growth at 1600 uM measured after 24 hrs by absorbance based analysis relative to control; assay type: functional
Saccharomyces cerevisiae [32] = assay: Antifungal activity against Saccharomyces cerevisiae harboring pdr10 delta mutant assessed as fungal growth at 1600 uM measured after 24 hrs by absorbance based analysis relative to control; assay type: functional
Saccharomyces cerevisiae [33] = assay: Antifungal activity against Saccharomyces cerevisiae harboring pdr11 delta mutant assessed as fungal growth at 1600 uM measured after 24 hrs by absorbance based analysis relative to control; assay type: functional
Saccharomyces cerevisiae [34] = assay: Antifungal activity against Saccharomyces cerevisiae harboring pdr12 delta mutant assessed as fungal growth at 1600 uM measured after 24 hrs by absorbance based analysis relative to control; assay type: functional
Saccharomyces cerevisiae [35] = assay: Antifungal activity against Saccharomyces cerevisiae harboring pdr15 delta mutant assessed as fungal growth at 1600 uM measured after 24 hrs by absorbance based analysis relative to control; assay type: functional
Saccharomyces cerevisiae [36] = assay: Antifungal activity against Saccharomyces cerevisiae harboring snq2 delta mutant assessed as fungal growth at 1600 uM measured after 24 hrs by absorbance based analysis relative to control; assay type: functional
Saccharomyces cerevisiae [37] = assay: Antifungal activity against Saccharomyces cerevisiae harboring vmr1 delta mutant assessed as fungal growth at 1600 uM measured after 24 hrs by absorbance based analysis relative to control; assay type: functional
Saccharomyces cerevisiae [38] = assay: Antifungal activity against Saccharomyces cerevisiae harboring ybt1 delta mutant assessed as fungal growth at 1600 uM measured after 24 hrs by absorbance based analysis relative to control; assay type: functional
Saccharomyces cerevisiae [39] = assay: Antifungal activity against Saccharomyces cerevisiae harboring ycf1 delta mutant assessed as fungal growth at 1600 uM measured after 24 hrs by absorbance based analysis relative to control; assay type: functional
Saccharomyces cerevisiae [40] = assay: Antifungal activity against Saccharomyces cerevisiae harboring ynr070w delta mutant assessed as fungal growth at 1600 uM measured after 24 hrs by absorbance based analysis relative to control; assay type: functional
Saccharomyces cerevisiae [41] = assay: Antifungal activity against Saccharomyces cerevisiae harboring yol075c delta mutant assessed as fungal growth at 1600 uM measured after 24 hrs by absorbance based analysis relative to control; assay type: functional
Saccharomyces cerevisiae [42] = assay: Antifungal activity against Saccharomyces cerevisiae harboring yor1 delta mutant assessed as fungal growth at 1600 uM measured after 24 hrs by absorbance based analysis relative to control; assay type: functional
Saccharomyces cerevisiae [43] = assay: Potentiation of fluconazole-induced antifungal activity against Saccharomyces cerevisiae BY4741 assessed as fungal growth at 100 uM measured after 24 hrs by absorbance based analysis relative to fluconazole-treated control; assay type: functional
Saccharomyces cerevisiae [44] = assay: Potentiation of fluconazole-induced antifungal activity against Saccharomyces cerevisiae YNL033 overexpressing PDR5 assessed as fungal growth at 100 uM measured after 24 hrs by absorbance based analysis relative to fluconazole-treated control; assay type: functional
Candida albicans [45] = assay: Potentiation of fluconazole-induced antifungal activity against Candida albicans CNL002 harboring cdr1 delta mutant assessed as inhibition of fungal growth at 100 uM measured after 24 hrs by absorbance based analysis; assay type: functional, organism-based
Saccharomyces cerevisiae [46] = assay: Inhibition of PDR5 in Saccharomyces cerevisiae BY4742 assessed as inhibition of R6G efflux incubated for 4 hrs followed by R6G addition and measured after 1.5 hrs by fluorescence based analysis; settings: dose 100-400 µM, time 5.5 hrs
Saccharomyces cerevisiae [47] = assay: Inhibition of PDR5 in Saccharomyces cerevisiae BY4742 assessed as inhibition of R6G efflux at 400 uM incubated for 4 hrs followed by R6G addition and measured after 1.5 hrs by fluorescence based analysis; settings: time 5.5 hrs
[48] = system: Saccharomyces cerevisiae BY4741; assay: Inhibition of PDR5 in Saccharomyces cerevisiae BY4741 assessed as intracellular accumulation of fluconazole at 400 uM measured per gm of cells after 4 hrs by HPLC analysis (reference value: 11.3 nmol); assay type: cell-based
Saccharomyces cerevisiae [49] = assay: Increase in intracellular fluconazole accumulation in Saccharomyces cerevisiae YNL032 harboring pdr5 deletion mutant at 400 uM measured after 4 hrs by HPLC analysis; assay type: functional, cell-based
Saccharomyces cerevisiae [50] = assay: Antifungal activity against Saccharomyces cerevisiae YNL013 harboring pdr5 delta mutant assessed as inhibition of fungal growth at 100 uM measured after 24 hrs by absorbance based analysis; assay type: functional, organism-based

C[C@H]1[C@H](OC(=O)CCC(=O)O)O[C@@H]2O[C@@]3(C)CC[C@H]4[C@H](C)CC[C@@H]1[C@@]24OO3 [ARTESUNATE]
Activity (Candida albicans [1]): inactive
Activity (Candida albicans [2]): 96.9%
Activity (Candida albicans [3]): 42.9%
Activity (Candida albicans [4]): inactive
Activity (Candida albicans [5]): inactive
Activity (Candida albicans [6]): Active
Activity (Candida albicans [7]): Active

CO[C@H]1O[C@@H]2O[C@@]3(C)CC[C@H]4[C@H](C)CC[C@@H]([C@H]1C)[C@@]24OO3 [ARTEMETHER]
inhibition at 100 µM (Candida albicans [1]): 10.1%
Activity (Candida albicans [8]): 96.1%
Activity (Candida albicans [2]): 95.2%
Activity (Candida albicans [3]): 52.6%
Activity (Candida albicans [4]): inactive
Activity (Candida albicans [5]): inactive
Activity (Candida albicans [6]): Active
Activity (Candida albicans [7]): Active
Activity (Candida albicans [9]): 86.9%
Activity (Candida albicans [10]): 91.6%
Activity (Candida albicans [11]): Active
Activity (Candida albicans [12]): Active
Activity ([Candida] auris [13]): 57.6%
Activity (Candida tropicalis [14]): 88.1%
Activity (Candida parapsilosis [15]): 68.6%
inhibition at 100 µM (Saccharomyces cerevisiae [16]): 45.8%
Activity ([Candida] auris [17]): 44.7%
Activity (Candida tropicalis [18]): 83.3%
Activity (Candida parapsilosis [19]): 41.5%
Activity ([Candida] auris [20]): 48.4%
Activity (Candida tropicalis [21]): 81.9%
Activity (Candida parapsilosis [22]): 41.5%
inhibition at 100 µM (Saccharomyces cerevisiae [23]): 68.8%
Activity (Cryptococcus neoformans [24]): Active
Activity (Cryptococcus neoformans [25]): Active
Activity (Saccharomyces cerevisiae [26]): 71.9%
Activity (Saccharomyces cerevisiae [27]): 68%
Activity (Saccharomyces cerevisiae [28]): 71%
Activity (Saccharomyces cerevisiae [29]): 71.8%
Activity (Saccharomyces cerevisiae [30]): 72.3%
Activity (Saccharomyces cerevisiae [31]): 29.8%
Activity (Saccharomyces cerevisiae [32]): 67.1%
Activity (Saccharomyces cerevisiae [33]): 77.8%
Activity (Saccharomyces cerevisiae [34]): 71.2%
Activity (Saccharomyces cerevisiae [35]): 70.2%
Activity (Saccharomyces cerevisiae [36]): 67.5%
Activity (Saccharomyces cerevisiae [37]): 65.6%
Activity (Saccharomyces cerevisiae [38]): 69.2%
Activity (Saccharomyces cerevisiae [39]): 60.3%
Activity (Saccharomyces cerevisiae [40]): 72.7%
Activity (Saccharomyces cerevisiae [41]): 67.9%
Activity (Saccharomyces cerevisiae [42]): 75.4%
Activity (Saccharomyces cerevisiae [43]): 76.5%
Activity (Saccharomyces cerevisiae [44]): 70.9%
Activity (Candida albicans [45]): Active
inhibition (Saccharomyces cerevisiae [46]): Dose-Dependent Effect
inhibition (Saccharomyces cerevisiae [47]): Active
Activity [48]: 13.1 nmol
Activity (Saccharomyces cerevisiae [49]): Active
Activity (Saccharomyces cerevisiae [50]): Active

C[C@@H]1CC[C@H]2[C@@H](C)C(=O)O[C@@H]3O[C@@]4(C)CC[C@@H]1[C@]32OO4 [ARTEMISININ]
inhibition at 100 µM (Candida albicans [1]): 4.9%
Activity (Candida albicans [8]): 96.1%
Activity (Candida albicans [2]): 97.7%
Activity (Candida albicans [3]): 22.6%
Activity (Candida albicans [4]): inactive
Activity (Candida albicans [5]): inactive
Activity (Candida albicans [6]): Active
Activity (Candida albicans [7]): Active
